Results published in patent publication US20250101019A1 (Insilico Medicine IP Limited, priority 2022, published 2025).

Legend:
ENPP1 [1] = target: T1, ENPP1 (Homo sapiens (Human), UniProt P22413); experiment: ATP-Glo enzymatic assay (ATP substrate, AMP-Glo readout); format: biochemical; settings: 25° C. for 60 min, 50 mM Tris pH 8.8
ENPP1 [2] = target: T1, ENPP1; experiment: cGAMP-Glo enzymatic assay (2′3′-cGAMP substrate, AMP-Glo readout); format: biochemical; settings: substrate 2′3′-cGAMP; 25° C. for 60 min; 50 mM Tris pH 8.8
Method in brief: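 Human ENPP1 incubated with compound (11-point, 3-fold series) and either ATP or 2′3′-cGAMP substrate for 60 min at 25 °C in 50 mM Tris pH 8.8, 250 mM NaCl, 0.1% BSA. AMP produced detected by AMP-Glo then kinase detection reagent, 1 h each at 25 °C, read as luminescence.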

T1 sequence (P22413 whole entry, species assumed): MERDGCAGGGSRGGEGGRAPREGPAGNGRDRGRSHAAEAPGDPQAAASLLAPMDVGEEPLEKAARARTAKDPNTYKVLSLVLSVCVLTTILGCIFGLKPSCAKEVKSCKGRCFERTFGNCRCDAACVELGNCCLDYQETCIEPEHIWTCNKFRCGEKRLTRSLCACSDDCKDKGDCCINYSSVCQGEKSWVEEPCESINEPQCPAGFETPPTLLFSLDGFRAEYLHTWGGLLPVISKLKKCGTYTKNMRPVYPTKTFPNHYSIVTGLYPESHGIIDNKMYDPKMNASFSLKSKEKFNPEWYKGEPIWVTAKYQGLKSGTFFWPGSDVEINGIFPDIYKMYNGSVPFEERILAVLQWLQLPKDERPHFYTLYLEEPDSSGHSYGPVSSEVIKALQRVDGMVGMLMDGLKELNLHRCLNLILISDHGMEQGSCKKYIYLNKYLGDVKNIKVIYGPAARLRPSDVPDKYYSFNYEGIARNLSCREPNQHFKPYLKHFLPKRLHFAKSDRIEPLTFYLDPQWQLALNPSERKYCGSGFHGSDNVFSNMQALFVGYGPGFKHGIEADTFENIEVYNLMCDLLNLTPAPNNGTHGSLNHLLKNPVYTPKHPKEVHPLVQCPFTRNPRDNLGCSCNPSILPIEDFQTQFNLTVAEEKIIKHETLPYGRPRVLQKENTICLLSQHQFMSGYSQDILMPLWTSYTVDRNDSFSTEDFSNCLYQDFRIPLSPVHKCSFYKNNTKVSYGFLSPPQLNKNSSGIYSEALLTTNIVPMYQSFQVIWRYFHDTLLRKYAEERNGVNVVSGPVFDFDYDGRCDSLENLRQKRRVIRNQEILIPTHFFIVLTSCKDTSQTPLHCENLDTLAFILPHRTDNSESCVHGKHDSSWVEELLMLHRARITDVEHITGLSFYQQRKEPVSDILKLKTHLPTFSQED

## [2H]C([2H])([2H])Oc1ncc2nc(C)n(Cc3ncc(S(N)(=O)=O)cc3F)c2c1-c1ccccc1 [Example 85, 5-fluoro-6-((6-(methoxy-d3)-2-methyl-7-phenyl-1H-imidazo[4,5-c]pyridin-1-yl)methyl)pyridine-3-sulfonamide]
ENPP1 [1]
  IC50: < 1 nM
ENPP1 [2]
  IC50: < 1 nM

## [2H]C([2H])([2H])Oc1ncc2nc(C(F)F)n(Cc3ncc(S(N)(=O)=O)cc3F)c2c1-c1ccccc1 [Example 86, 6-((2-(difluoromethyl)-6-(methoxy-d3)-7-phenyl-1H-imidazo[4,5-c]pyridin-1-yl)methyl)-5-fluoropyridine-3-sulfonamide]
ENPP1 [1]
  IC50: < 1 nM
ENPP1 [2]
  IC50: < 1 nM
